Test results reported in US11415579B2, “Assay for measuring a rate of reaction between a target and a ligand candidate” (Imperial College Innovations Ltd., priority 2016, dated 2022).

Tests used:
[1] = target: T1, human cyclin-dependent kinase 2 (Cdk2) (Homo sapiens, UniProt P24941); assay: Kinetic thiol consumption assay with wild type Cdk2 (C177); assay type: binding; design: key to Rate enhancement, Cdk2 WT: k(Cdk2) divided by k(model thiol); details: for Rate enhancement, Cdk2 WT: no additional mutations; for Rate constant with Cdk2 WT: Protein: Cdk2, cysteine position WT, in h^-1
T1 construct: poly-histidine; made in house; host or cells: E. coli
Experimental: (§1) A library of 120 acrylamides was screened against a) human cyclin-dependent kinase 2 (Cdk2, which contains one surface exposed cysteine residue—C177), prepared by cloning cDNA into the pRSETA bacterial expression vector to generate a poly-histidine tagged Cdk2 fusion that was purified from E. coli using standard techniques, and b) a model thiol (specific details are given below). The structures of these 120 acrylamides are set out in Table 1, above.
(§2) To wells containing 150 μL thiol (Cdk2 or model thiol) (5 μM) in degassed phosphate buffer (pH 8) was added immobilized TCEP beads (2% v/v).
(§3) After incubation of the fluorescence plates for 1 hour at room temperature, fluorescence measurements (excitation/emission of 380/470 nm) were taken on a PerkinElmer EnVision multilabel plate reader and processed with EnVision Workstation version 1.12.
(§4) Fluorescence measurements were normalized against a DMSO/thiol only control and plotted against time.
(§5) Rate constants were calculated using GraphPad software Prism version 6 by fitting a first order exponential decay to the data. The rate constant for each acrylamide with Cdk2 was divided by the rate constant for that fragment with the model thiol to provide the rate enhancement for each ligand candidate.

[2] = target: T2, Cdk2(N272C) (C177A) (Homo sapiens, UniProt P24941, C177A/N272C); assay: Kinetic thiol consumption assay with Cdk2 mutant N272C; assay type: binding; design: key to Rate enhancement, Cdk2 N272: rate constant with Cdk2 ÷ rate constant with model thiol (fold); details: for Rate enhancement, Cdk2 N272: Cdk2 N272, additional mutation C177A; for Rate constant with Cdk2 N272C: Protein: Cdk2, cysteine position N272C, additional mutation C177A, in h^-1
T2 construct: poly-histidine; made in house; host or cells: E. coli
Experimental: as §2, §3, §4, §5
(§6) A further set of set of additional Cdk2 mutants were screened, all containing the C177A mutation and therefore with only one cysteine on the surface: • F80C (without the K278C mutation) • H71C • S276C • N272 • T182C • R122C • S181C
(§7) Mutations were introduced by site-directed mutagenesis and the resulting cDNA was cloned into the pRSETA bacterial expression vector to generate a poly-histidine tagged Cdk2 fusion that was purified from E. coli using standard techniques.

[3] = target: T3, Cdk2(S276C) (C177A) (Homo sapiens, UniProt P24941, C177A/S276C); assay: Kinetic thiol consumption assay with Cdk2 mutant S276C; assay type: binding; design: key to Rate enhancement, Cdk2 S276C: rate constant with Cdk2 ÷ rate constant with model thiol (fold); details: additional mutation C177A; for Rate constant with Cdk2 S276C: Protein: Cdk2, cysteine position S276C, in h^-1
T3 construct: poly-histidine; made in house; host or cells: E. coli
Experimental: as §2, §3, §4, §5, §6, §7

[4] = target: T4, Cdk2(H71C) (C177A) (Homo sapiens, UniProt P24941, C177A/H71C); assay: Kinetic thiol consumption assay with Cdk2 mutant H71C; assay type: binding; design: key to Rate enhancement, Cdk2 H71C: rate constant with Cdk2 ÷ rate constant with model thiol (fold); details: additional mutation C177A; for Rate constant with Cdk2 H71C: Protein: Cdk2, cysteine position H71C, in h^-1
T4 construct: poly-histidine; made in house; host or cells: E. coli
Experimental: as §2, §3, §4, §5, §6, §7

[5] = target: T5, Cdk2(T182C) (C177A) (Homo sapiens, UniProt P24941, C177A/T182C); assay: Kinetic thiol consumption assay with Cdk2 mutant T182C; assay type: binding; design: key to Rate enhancement, Cdk2 T182C: rate constant with Cdk2 ÷ rate constant with model thiol (fold); details: additional mutation C177A; for Rate constant with Cdk2 T182C: Protein: Cdk2, cysteine position T182C, in h^-1
T5 construct: poly-histidine; made in house; host or cells: E. coli
Experimental: as §2, §3, §4, §5, §6, §7

[6] = Kinetic thiol consumption assay with model thiol glutathione; assay type: physicochemical; details: Protein: Glutathione; cysteine position NA; in h-1
Experimental: as §1, §2, §3, §4, §5
The model thiol in Example 1 is glutathione (GSH). Hits were defined as fragments where kCdk2/kGSH>5.8 (empirically determined as 3 standard deviations over the mean).

[7] = target: T6, Cdk2(C177A, F80C) (Homo sapiens, UniProt P24941, C177A/F80C); assay: Kinetic thiol consumption assay with Cdk2 mutant F80C, incl. kobs versus concentration (Kd, k2); assay type: binding; design: key to Rate enhancement, Cdk2 F80C: Cdk2 rate constant divided by model-thiol rate constant; details: additional mutation C177A; for Rate constant with Cdk2 F80C: Protein: Cdk2, cysteine position F80C, in h^-1
T6 construct: poly-histidine; made in house; host or cells: E. coli
Experimental: Therefore the assay can be used to calculate both k2 and Kd by experimentally determining kobs at a suitable range of ligand candidate concentrations. Typically Kd and k2 would then be determined by fitting a hyperbolic curve to a plot of kobs against ligand candidate concentration (FIG. 9).
as §2, §3, §4, §5, §6, §7
Rate constants were calculated as described in the methodology section of Examples 1 and 2.

[8] = target: T7, Cdk2(R122C) (C177A) (Homo sapiens, UniProt P24941, C177A/R122C); assay: Kinetic thiol consumption assay with Cdk2 mutant R122C; assay type: binding; design: key to Rate enhancement, Cdk2 R122C: rate constant with Cdk2 ÷ rate constant with model thiol (fold); details: additional mutation C177A; for Rate constant with Cdk2 R122C: Protein: Cdk2, cysteine position R122C, in h-1
T7 construct: poly-histidine; made in house; host or cells: E. coli
Experimental: as §2, §3, §4, §5, §6, §7

[9] = target: T8, Cdk2(S181C) (C177A) (Homo sapiens, UniProt P24941, C177A/S181C); assay: Kinetic thiol consumption assay with Cdk2 mutant S181C; assay type: binding; design: key to Rate enhancement, Cdk2 S181C: rate constant with Cdk2 ÷ rate constant with model thiol (fold); details: additional mutation C177A; for Rate constant with Cdk2 S181C: Protein: Cdk2, cysteine position S181C, in h^-1
T8 construct: poly-histidine; made in house; host or cells: E. coli
Experimental: as §2, §3, §4, §5, §6, §7

With `O=C(CCl)NCCc1c[nH]c2ccccc12` [EN005] the “Rate enhancement, Cdk2 WT” value [1] was 6.167, the “Rate constant with Cdk2 WT” value [1] was 0.01562 and the “Rate enhancement, Cdk2 N272” value [2] was 0. The “Rate enhancement, Cdk2 S276C” value [3] was 13.55, the “Rate constant with Cdk2 S276C” value [3] was 0.03433 and the “Rate enhancement, Cdk2 H71C” value [4] was 0.852. For the same compound, the “Rate constant with Cdk2 H71C” value [4] was 0.002158, the “Rate enhancement, Cdk2 T182C” value [5] was 11.33 and the “Rate constant with Cdk2 T182C” value [5] was 0.02869. The “Rate constant with Glutathione” value [6] was 0.002533, the “Rate enhancement, Cdk2 F80C” value [7] was 0.8693 and the “Rate constant with Cdk2 F80C” value [7] was 0.002202. For the same compound, the “Rate enhancement, Cdk2 R122C” value [8] was 0.5681, the “Rate constant with Cdk2 R122C” value [8] was 0.001439 and the “Rate enhancement, Cdk2 S181C” value [9] was 5.886. For the same compound, the “Rate constant with Cdk2 S181C” value [9] was 0.01491.

In the case of `O=C(c1ccccc1)[C@@H]1O[C@H]1c1ccccc1` [EN006], the “Rate enhancement, Cdk2 WT” value [1] is reported as 1.315, the “Rate constant with Cdk2 WT” value [1] is reported as 0.002918 and the “Rate enhancement, Cdk2 N272” value [2] is reported as 5.777. For the same compound, the “Rate constant with Cdk2 N272C” value [2] was 0.01282, the “Rate enhancement, Cdk2 S276C” value [3] was 74.76 and the “Rate constant with Cdk2 S276C” value [3] was 0.1659. The “Rate enhancement, Cdk2 H71C” value [4] was 12.95, the “Rate constant with Cdk2 H71C” value [4] was 0.02873 and the “Rate enhancement, Cdk2 T182C” value [5] was 34.33. The “Rate constant with Cdk2 T182C” value [5] was 0.07618, the “Rate constant with Glutathione” value [6] was 0.002219 and the “Rate enhancement, Cdk2 F80C” value [7] was 7.7693E−12. The “Rate constant with Cdk2 F80C” value [7] was 1.724E−14, the “Rate enhancement, Cdk2 R122C” value [8] was 0.411 and the “Rate constant with Cdk2 R122C” value [8] was 0.000912. The “Rate enhancement, Cdk2 S181C” value [9] was 4.709 and the “Rate constant with Cdk2 S181C” value [9] was 0.01045.

For `O=S1(=O)C=CC(Br)C1` (stereo not shown) [EN010], the “Rate enhancement, Cdk2 WT” value [1] was 2.833, the “Rate constant with Cdk2 WT” value [1] was 1.708 and the “Rate enhancement, Cdk2 N272” value [2] was 0.198. The “Rate constant with Cdk2 N272C” value [2] was 0.1194, the “Rate enhancement, Cdk2 S276C” value [3] was 0.9531 and the “Rate constant with Cdk2 S276C” value [3] was 0.5747. The “Rate enhancement, Cdk2 H71C” value [4] was 0.1025, the “Rate constant with Cdk2 H71C” value [4] was 0.06183 and the “Rate enhancement, Cdk2 T182C” value [5] was 4.219. For the same compound, the “Rate constant with Cdk2 T182C” value [5] was 2.544, the “Rate constant with Glutathione” value [6] was 0.603 and the “Rate enhancement, Cdk2 F80C” value [7] was 0.00861. The “Rate constant with Cdk2 F80C” value [7] was 0.005192, the “Rate enhancement, Cdk2 R122C” value [8] was 0.3799 and the “Rate constant with Cdk2 R122C” value [8] was 0.2291. The “Rate enhancement, Cdk2 S181C” value [9] was 0.3144 and the “Rate constant with Cdk2 S181C” value [9] was 0.1896.

For `O=C(CCl)N1CCCCCC1` [EN011], the “Rate enhancement, Cdk2 WT” value [1] was 0.6051, the “Rate constant with Cdk2 WT” value [1] was 0.08018 and the “Rate enhancement, Cdk2 N272” value [2] was 0.1463. For the same compound, the “Rate constant with Cdk2 N272C” value [2] was 0.01938, the “Rate enhancement, Cdk2 S276C” value [3] was 1.075 and the “Rate constant with Cdk2 S276C” value [3] was 0.1424. The “Rate enhancement, Cdk2 H71C” value [4] was 0.08604, the “Rate constant with Cdk2 H71C” value [4] was 0.0114 and the “Rate enhancement, Cdk2 T182C” value [5] was 0.4574. For the same compound, the “Rate constant with Cdk2 T182C” value [5] was 0.06061, the “Rate constant with Glutathione” value [6] was 0.1325 and the “Rate enhancement, Cdk2 F80C” value [7] was 0. For the same compound, the “Rate enhancement, Cdk2 R122C” value [8] was 0.02161, the “Rate constant with Cdk2 R122C” value [8] was 0.002863 and the “Rate enhancement, Cdk2 S181C” value [9] was 0.09796. For the same compound, the “Rate constant with Cdk2 S181C” value [9] was 0.01298.

For `CC1CN(C(=O)CCl)CC(C)O1` (stereo not shown) [EN012], the “Rate enhancement, Cdk2 WT” value [1] was 1.086, the “Rate constant with Cdk2 WT” value [1] was 0.2933 and the “Rate enhancement, Cdk2 N272” value [2] was 0.1055. For the same compound, the “Rate constant with Cdk2 N272C” value [2] was 0.02849, the “Rate enhancement, Cdk2 S276C” value [3] was 0.5904 and the “Rate constant with Cdk2 S276C” value [3] was 0.1594. For the same compound, the “Rate enhancement, Cdk2 H71C” value [4] was 0.03607, the “Rate constant with Cdk2 H71C” value [4] was 0.009738 and the “Rate enhancement, Cdk2 T182C” value [5] was 0.3161. For the same compound, the “Rate constant with Cdk2 T182C” value [5] was 0.08536, the “Rate constant with Glutathione” value [6] was 0.27 and the “Rate enhancement, Cdk2 F80C” value [7] was 0. For the same compound, the “Rate enhancement, Cdk2 R122C” value [8] was 0.02811, the “Rate constant with Cdk2 R122C” value [8] was 0.00759 and the “Rate enhancement, Cdk2 S181C” value [9] was 0.067. For the same compound, the “Rate constant with Cdk2 S181C” value [9] was 0.01809.
